In PMC10818821, “Towards a New Generation of Hormone Therapies: Design, Synthesis and Biological Evaluation of Novel 1,2,3-Triazoles as Estrogen-Positive Breast Cancer Therapeutics and Non-Steroidal Aromatase Inhibitors” (Pharmaceuticals, 2024):

Target: T1, aromatase (CYP19) (Homo sapiens, UniProt P11511)
T1 construct: gene CYP19A1
T1 sequence (P11511 1-503): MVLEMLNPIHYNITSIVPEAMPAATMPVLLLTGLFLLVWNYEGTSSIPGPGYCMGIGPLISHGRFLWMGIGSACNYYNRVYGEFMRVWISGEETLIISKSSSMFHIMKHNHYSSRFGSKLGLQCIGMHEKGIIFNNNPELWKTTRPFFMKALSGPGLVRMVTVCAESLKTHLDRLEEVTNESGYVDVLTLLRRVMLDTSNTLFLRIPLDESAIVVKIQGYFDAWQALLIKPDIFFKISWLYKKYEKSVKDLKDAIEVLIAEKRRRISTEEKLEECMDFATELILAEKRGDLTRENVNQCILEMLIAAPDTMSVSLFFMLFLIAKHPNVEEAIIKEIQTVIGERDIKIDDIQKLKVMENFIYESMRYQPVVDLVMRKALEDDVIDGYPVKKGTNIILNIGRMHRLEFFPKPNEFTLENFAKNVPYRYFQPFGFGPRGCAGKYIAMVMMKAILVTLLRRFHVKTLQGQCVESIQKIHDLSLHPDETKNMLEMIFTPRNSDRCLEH
Assay: fluorogenic aromatase activity assay (Abcam kit), dose-response […]
Format: biochemical

SMILES | IC50
CCOC(=O)c1nn(-c2ccccc2)c(=NN=C(C)c2nnn(-c3ccc(OC)cc3)c2C)s1 [compound 6, Ethyl 5-((1-(1-(4-Methoxyphenyl)-5-methyl-1H-1,2,3-triazol-4-yl)ethylidene)hydrazono)-4-phenyl-4,5-dihydro-1,3,4-thiadiazole-2-carboxylate] | 3.57 µM
COc1ccc(-n2nnc(C(C)=NN=c3sc(C(C)=O)nn3-c3ccc(C)cc3)c2C)cc1 [compound 5, 1-(5-((1-(1-(4-Methoxyphenyl)-5-methyl-1H-1,2,3-triazol-4-yl)ethylidene)hydrazono)-4-(p-tolyl)-4,5-dihydro-1,3,4-thiadiazol-2-yl)ethan-1-one] | 1.99 µM
CCOC(=O)c1nn(-c2ccc(C)cc2)c(=NN=C(C)c2nnn(-c3ccc(OC)cc3)c2C)s1 [compound 7, Ethyl 5-((1-(1-(4-Methoxyphenyl)-5-methyl-1H-1,2,3-triazol-4-yl)ethylidene) hydrazono)-4-(p-tolyl)-4,5-dihydro-1,3,4-thiadiazole-2-carboxylate] | 2.99 µM
COc1ccc(-n2nnc(C(C)=NN=c3sc(C(C)=O)nn3-c3ccccc3)c2C)cc1 [compound 4, 1-(5-((1-(1-(4-Methoxyphenyl)-5-methyl-1H-1,2,3-triazol-4-yl)ethylidene)hydrazono)-4-phenyl-4,5-dihydro-1,3,4-thiadiazol-2-yl)ethan-1-one] | 3.62 µM
